According to PMC8894010, “Synthesis, Carbonic Anhydrase II/IX/XII Inhibition, DFT, and Molecular Docking Studies of Hydrazide-Sulfonamide Hybrids of 4-Methylsalicyl- and Acyl-Substituted Hydrazide” (BioMed Research International, 2022):

Assays:
CA II = CA II (Homo sapiens, UniProt P00918); test: Carbonic anhydrase inhibition assay (p-nitrophenyl acetate hydrolysis, colorimetric, 348 nm)
CA IX = molecular target: T1, CA IX (Homo sapiens, UniProt Q16790); test: as above; type: biochemical; settings: mean of three independent experiments ± SEM; pH 7.6; read-out: CAIX Ki (μM ± SEM)
T1 construct: His-tag; made in house
Protocol: All three isozymes, CA II, CA IX, and CA XII, were produced using the same protocol done for each. Transformation was the first step to be done in which the plasmids and the off-spark plasmids of CA II, CA IX, and CA XII were transformed into competent E. coli bacteria using the heat shock method, cells were grown in agar, then a colony was selected for further growth in LB broth, cells were collected by centrifugation according to the methods described in [25], and the plasmid was extracted according to the kit protocol using SanPrep column plasmid miniprep kit obtained from Sangon Biotech. […] Six hours later, the media were aspirated, and the fresh prepared (+10% FBS and 1% pen/strep) media were added to the cells. On the next day, the cells were inspected for their viability, and new media were used for the selection process which were DMEM, FBS, and hygromycin B using a final concentration of 200 μg/mL. The cells were grown in the selective media, and when they reached 70 to 80% confluency, the offs-park plasmid transfected cells were checked under a fluorescent microscope to insure the production of the protein; then, the cells transfected with the His-tagged plasmid were collected for making the cell lysate following the method described by by centrifugation of the cells at 2000 rpm for 5 minutes, washed with PBS, and again centrifuged; the pellet was then suspended in the cell lysis buffer, incubated in ice for 15 minutes, and centrifuged again at 10000 g at 4°C for 15 minutes, and here, the pellet was discarded and the supernatant was collected for purification using Ni-NTA Sepharose column according to the manufacturer's protocol. And the eluting solution was quantified using the protein quantification technique Biuret assay and Bradford reagent for protein quantification.
Carbonic anhydrase inhibition activity was carried out using an already developed method with slight modification. The principle of the current method is centered on that “CA hydrolyses the p-nitrophenyl acetate to p-nitrophenol” which is determined by spectrophotometrically. Reaction mixture contained 60 μL of 50 mM Tris-sulfate buffer (pH 7.6 containing 0.1 mM ZnCl2) and 10 μL (0.5 mM) test compound in 1% DMSO. […] Preparation of p-nitrophenyl acetate was done by taking 6 mM stock using <5% acetonitrile in buffer and was used fresh. Each well was filled with 20 μL solution to attain […] concentration. The total reaction volume was made to 100 μL.

CA XII = CA XII (Homo sapiens, UniProt O43570); test: as above; settings: for CAXII % inhibition: given instead of Ki where inhibition <50%, test compound 10 μL (0.5 mM), b52 says 1.0 mM
Sequence of CA XII (O43570 25-354): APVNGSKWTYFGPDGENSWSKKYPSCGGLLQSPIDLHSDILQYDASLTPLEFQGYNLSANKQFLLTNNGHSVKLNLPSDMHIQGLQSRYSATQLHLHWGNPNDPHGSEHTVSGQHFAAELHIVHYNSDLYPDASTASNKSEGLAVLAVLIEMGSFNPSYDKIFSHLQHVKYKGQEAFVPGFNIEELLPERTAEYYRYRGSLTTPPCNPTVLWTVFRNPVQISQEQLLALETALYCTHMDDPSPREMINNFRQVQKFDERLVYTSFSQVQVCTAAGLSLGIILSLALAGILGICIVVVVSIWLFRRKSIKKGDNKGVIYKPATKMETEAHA
Protocol: Carbonic anhydrase inhibition activity was carried out using an already developed method [19] with slight modification. The principle of the current method is centered on that “CA hydrolyses the p-nitrophenyl acetate to p-nitrophenol” which is determined by spectrophotometrically. Reaction mixture contained 60 μL of 50 mM Tris-sulfate buffer (pH 7.6 containing 0.1 mM ZnCl2) and 10 μL (0.5 mM) test compound in 1% DMSO. […] Preparation of p-nitrophenyl acetate was done by taking 6 mM stock using <5% acetonitrile in buffer and was used fresh. Each well was filled with 20 μL solution to attain 0.6 mM concentration. The total reaction volume was made to 100 μL.

SMILES	melting point	Ki (CA II)	Ki (CA IX)	CAXII % inhibition (CA XII)	Ki (CA XII)
COc1cc(C)ccc1C(=O)NNS(=O)(=O)c1ccc([N+](=O)[O-])cc1 [Compound 19, N′-(2-Methoxy-4-methylbenzoyl)-4-nitrobenzenesulfonohydrazide]	220 to 222 °C	680 ± 20 nM	0.58 ± 0.04 µM	44.4%	
COc1cc(C)ccc1C(=O)NNS(=O)(=O)c1ccc(Br)cc1 [Compound 20, 4-Bromo-N′-(2-methoxy-4-methylbenzoyl)benzenesulfonohydrazide]	168 to 169 °C	660 ± 40 nM	0.56 ± 0.05 µM		990 ± 100 nM
COc1ccc(S(=O)(=O)NNC(=O)c2ccc(C)cc2OC)cc1 [Compound 21, 4-Methoxy-N′-(2-methoxy-4-methylbenzoyl)benzenesulfono hydrazide]	159 to 162 °C	610 ± 10 nM	0.19 ± 0.02 µM		1220 ± 10 nM
COc1cc(C)ccc1C(=O)NNS(=O)(=O)c1ccc(C)cc1 [Compound 22, N′-(2-Methoxy-4-methylbenzoyl)-4-methylbenzenesulfonohydrazide]	161 to 163 °C	680 ± 10 nM	1.04 ± 0.38 µM	42.89%	
COc1cc(C)ccc1C(=O)NNS(=O)(=O)c1ccc2ccccc2c1 [Compound 23, N′-(2-Methoxy-4-methylbenzoyl)naphthalene-2-sulfonohydrazide]	186 to 187 °C	940 ± 20 nM	0.19 ± 0.03 µM		750 ± 70 nM
Cc1ccc(C(=O)NNS(=O)(=O)c2ccc([N+](=O)[O-])cc2)c(O)c1 [Compound 24, N′-(2-Hydroxy-4-methylbenzoyl)-4-nitrobenzenesulfonohydrazide]	211 to 213 °C	340 ± 10 nM	0.54 ± 0.06 µM		520 ± 40 nM
Cc1ccc(C(=O)NNS(=O)(=O)c2ccc(Br)cc2)c(O)c1 [Compound 25, 4-Bromo-N′-(2-hydroxy-4-methylbenzoyl)benzenesulfonohydrazide]		910 ± 20 nM	0.33 ± 0.03 µM		350 ± 40 nM
COc1ccc(S(=O)(=O)NNC(=O)c2ccc(C)cc2O)cc1 [Compound 26, N′-(2-Hydroxy-4-methylbenzoyl)-4-methoxybenzenesulfono hydrazide]	168 to 169 °C	960 ± 90 nM	0.91 ± 0.09 µM		580 ± 40 nM
Cc1ccc(S(=O)(=O)NNC(=O)c2ccc(C)cc2O)cc1 [Compound 27, N′-(2-Hydroxy-4-methylbenzoyl)-4-methylbenzenesulfonohydrazide]	183 to 185 °C	1110 ± 40 nM	0.51 ± 0.04 µM		430 ± 80 nM
Cc1ccc(CC(=O)NNS(=O)(=O)c2ccc([N+](=O)[O-])cc2)cc1 [Compound 28, 4-Nitro-N′-(2-(p-tolyl)acetyl)benzenesulfonohydrazide]	205 to 206 °C	460 ± 10 nM	0.55 ± 0.01 µM		1020 ± 80 nM
Cc1ccc(CC(=O)NNS(=O)(=O)c2ccc(Br)cc2)cc1 [Compound 29, 4-Bromo-N′-(2-(p-tolyl)acetyl)benzenesulfonohydrazide]	156 to 157 °C	730 ± 20 nM	0.33 ± 0.02 µM		550 ± 10 nM
COc1ccc(S(=O)(=O)NNC(=O)Cc2ccc(C)cc2)cc1 [Compound 30, 4-Methoxy-N′-(2-(p-tolyl)acetyl)benzenesulfonohydrazide]	133 to 134 °C	740 ± 40 nM	0.33 ± 0.03 µM		130 ± 10 nM
Cc1ccc(CC(=O)NNS(=O)(=O)c2ccc(C)cc2)cc1 [Compound 31, 4-Methyl-N′-(2-(p-tolyl)acetyl)benzenesulfonohydrazide]	143 to 144 °C	670 ± 10 nM	0.29 ± 0.02 µM		400 ± 90 nM
COc1cccc(CC(=O)NNS(=O)(=O)c2ccc([N+](=O)[O-])cc2)c1 [Compound 32, N′-(2-(3-Methoxyphenyl)acetyl)-4-nitrobenzenesulfonohydrazide]	158 to 159 °C	670 ± 60 nM	0.32 ± 0.01 µM	49.25%	
COc1cccc(CC(=O)NNS(=O)(=O)c2ccc(Br)cc2)c1 [Compound 33, 4-Bromo-N′-(2-(3-methoxyphenyl)acetyl)benzenesulfonohydrazide]	153 to 154 °C	680 ± 50 nM	0.39 ± 0.03 µM		170 ± 10 nM
COc1ccc(S(=O)(=O)NNC(=O)Cc2cccc(OC)c2)cc1 [Compound 34, 4-Methoxy-N′-(2-(3-methoxyphenyl)acetyl)benzenesulfonohydrazide]	146 to 147 °C	1810 ± 30 nM	0.65 ± 0.03 µM		220 ± 60 nM
COc1cccc(CC(=O)NNS(=O)(=O)c2ccc(C)cc2)c1 [Compound 35, N′-(2-(3-Methoxyphenyl)acetyl)-4-methylbenzenesulfonohydrazide]	143 to 144 °C	3200 ± 140 nM	1.18 ± 0.04 µM		340 ± 10 nM
COc1cccc(CC(=O)NNS(=O)(=O)c2ccc3ccccc3c2)c1 [Compound 36, N′-(2-(3-Methoxyphenyl)acetyl)naphthalene-2-sulfonohydrazide]	139 to 141 °C	920 ± 100 nM	0.6 ± 0.01 µM	48.88%	
